# According to the NIST ThermoML archive (doi:10.1016/j.jct.2015.08.021):
# Numbers after ± are expanded uncertainties.
# What was measured:
# [1] = refractive index (Na D-line) (dimensionless); xn = mol fraction of the nth substance listed; details: 101.3 kPa, Liquid, Standard Abbe refractometry
# [2] = relative permittivity at various frequencies (dimensionless); xn = mol fraction of the nth substance listed; details: 101.3 kPa, Liquid, Frequency=0.1 MHz, Coaxial cylinder capacitor
smiles,measurement,setting,value
CCCCCO [pentan-1-ol] + C1COCCO1,refractive index,"[1]; 298.15 K, x1 = 1",1.4082 ± 0.0011
same,refractive index,"[1]; 308.15 K, x1 = 1",1.4041 ± 0.0011
same,refractive index,"[1]; 318.15 K, x1 = 1",1.4001 ± 0.0011
same,relative permittivity,"[2]; 298.15 K, x1 = 1",15.11 ± 0.18
same,relative permittivity,"[2]; 308.15 K, x1 = 1",13.72 ± 0.17
same,relative permittivity,"[2]; 318.15 K, x1 = 1",12.391 ± 0.15
"OCCCCO [1,4-butanediol] + CCCCCO",refractive index,"[1]; 298.15 K, x1 = 0.1",1.4118 ± 0.0011
same,refractive index,"[1]; 298.15 K, x1 = 0.2",1.4147 ± 0.0011
same,refractive index,"[1]; 298.15 K, x1 = 0.3",1.4185 ± 0.0011
same,refractive index,"[1]; 298.15 K, x1 = 0.403",1.4226 ± 0.0011
same,refractive index,"[1]; 298.15 K, x1 = 0.501",1.4256 ± 0.0011
same,refractive index,"[1]; 298.15 K, x1 = 0.601",1.4302 ± 0.0011
same,refractive index,"[1]; 298.15 K, x1 = 0.701",1.4334 ± 0.0011
same,refractive index,"[1]; 298.15 K, x1 = 0.8",1.4375 ± 0.0011
same,refractive index,"[1]; 298.15 K, x1 = 0.9",1.441 ± 0.0011
same,refractive index,"[1]; 298.15 K, x1 = 1",1.4445 ± 0.0011
same,refractive index,"[1]; 308.15 K, x1 = 0.1",1.4081 ± 0.0011
same,refractive index,"[1]; 308.15 K, x1 = 0.2",1.4114 ± 0.0011
same,refractive index,"[1]; 308.15 K, x1 = 0.3",1.4149 ± 0.0011
same,refractive index,"[1]; 308.15 K, x1 = 0.403",1.4193 ± 0.0011
same,refractive index,"[1]; 308.15 K, x1 = 0.501",1.4234 ± 0.0011
same,refractive index,"[1]; 308.15 K, x1 = 0.601",1.4267 ± 0.0011
same,refractive index,"[1]; 308.15 K, x1 = 0.701",1.431 ± 0.001
same,refractive index,"[1]; 308.15 K, x1 = 0.8",1.4345 ± 0.0011
same,refractive index,"[1]; 308.15 K, x1 = 0.9",1.4382 ± 0.0011
same,refractive index,"[1]; 308.15 K, x1 = 1",1.4417 ± 0.0011
same,refractive index,"[1]; 318.15 K, x1 = 0.1",1.4051 ± 0.0011
same,refractive index,"[1]; 318.15 K, x1 = 0.2",1.4089 ± 0.0011
same,refractive index,"[1]; 318.15 K, x1 = 0.3",1.4119 ± 0.0011
same,refractive index,"[1]; 318.15 K, x1 = 0.403",1.4166 ± 0.0011
same,refractive index,"[1]; 318.15 K, x1 = 0.501",1.4201 ± 0.0011
same,refractive index,"[1]; 318.15 K, x1 = 0.601",1.4242 ± 0.0011
same,refractive index,"[1]; 318.15 K, x1 = 0.701",1.428 ± 0.001
same,refractive index,"[1]; 318.15 K, x1 = 0.8",1.4324 ± 0.0011
same,refractive index,"[1]; 318.15 K, x1 = 0.9",1.4358 ± 0.0011
same,refractive index,"[1]; 318.15 K, x1 = 1",1.4393 ± 0.0011
same,relative permittivity,"[2]; 298.15 K, x1 = 0.1",16.037 ± 0.19
same,relative permittivity,"[2]; 298.15 K, x1 = 0.2",17.171 ± 0.21
same,relative permittivity,"[2]; 298.15 K, x1 = 0.3",18.467 ± 0.22
same,relative permittivity,"[2]; 298.15 K, x1 = 0.403",19.924 ± 0.24
same,relative permittivity,"[2]; 298.15 K, x1 = 0.501",21.49 ± 0.26
same,relative permittivity,"[2]; 298.15 K, x1 = 0.601",23.245 ± 0.28
same,relative permittivity,"[2]; 298.15 K, x1 = 0.701",25.108 ± 0.3
same,relative permittivity,"[2]; 298.15 K, x1 = 0.8",27.105 ± 0.33
same,relative permittivity,"[2]; 298.15 K, x1 = 0.9",29.265 ± 0.35
same,relative permittivity,"[2]; 298.15 K, x1 = 1",31.587 ± 0.38
same,relative permittivity,"[2]; 308.15 K, x1 = 0.1",14.699 ± 0.18
same,relative permittivity,"[2]; 308.15 K, x1 = 0.2",15.827 ± 0.19
same,relative permittivity,"[2]; 308.15 K, x1 = 0.3",17.054 ± 0.21
same,relative permittivity,"[2]; 308.15 K, x1 = 0.403",18.471 ± 0.22
same,relative permittivity,"[2]; 308.15 K, x1 = 0.501",19.97 ± 0.24
same,relative permittivity,"[2]; 308.15 K, x1 = 0.601",21.632 ± 0.26
same,relative permittivity,"[2]; 308.15 K, x1 = 0.701",23.459 ± 0.28
same,relative permittivity,"[2]; 308.15 K, x1 = 0.8",25.339 ± 0.31
same,relative permittivity,"[2]; 308.15 K, x1 = 0.9",27.356 ± 0.33
same,relative permittivity,"[2]; 308.15 K, x1 = 1",29.482 ± 0.35
same,relative permittivity,"[2]; 318.15 K, x1 = 0.1",13.391 ± 0.16
same,relative permittivity,"[2]; 318.15 K, x1 = 0.2",14.452 ± 0.17
same,relative permittivity,"[2]; 318.15 K, x1 = 0.3",15.646 ± 0.19
same,relative permittivity,"[2]; 318.15 K, x1 = 0.403",17.026 ± 0.21
same,relative permittivity,"[2]; 318.15 K, x1 = 0.501",18.416 ± 0.22
same,relative permittivity,"[2]; 318.15 K, x1 = 0.601",19.971 ± 0.24
same,relative permittivity,"[2]; 318.15 K, x1 = 0.701",21.616 ± 0.26
same,relative permittivity,"[2]; 318.15 K, x1 = 0.8",23.393 ± 0.28
same,relative permittivity,"[2]; 318.15 K, x1 = 0.9",25.251 ± 0.3
same,relative permittivity,"[2]; 318.15 K, x1 = 1",27.203 ± 0.33
